# Data reported in patent US20220290122A1 (Whitehead Institute for Biomedical Research, priority 2019, published 2022).
# Tested on: MCART1-null Jurkat cells
# Assay: Cell proliferation assay with metabolite supplementation (metabolite rescue)
# Type: cell-based, human
# Details: RPMI media; 1 mM pyruvate and 100 μg/ml uridine, 1 mM formate or 0.1 mM/16 μM hypoxanthine/thymidine added at the beginning of the culture period; FIG. 5M
# Method: Unless otherwise indicated, Jurkat and K562 cells were cultured in RPMI (Life Technologies) supplemented with 10% Inactivated Fetal Calf Serum (IFS, Sigma and Gemini), 2 mM glutamine, and penicillin/streptomycin. HeLa, HEK-293T, and Ben cells were cultured in DMEM (Life Technologies) supplemented with 10% IFS and penicillin/streptomycin. […] To compare proliferation of cells in glucose to proliferation in galactose, RPMI without glucose (Life Technologies) was supplemented with dialyzed IFS and either 10 mM glucose or galactose. All cell lines were maintained at 37° C. and 5% CO2.
# 10,000 cells per well were seeded into 96-well plates in triplicate. Cell titer glo reagent (Promega) was added to one plate 1 hour after seeding and luminescence was measured, while a second plate was read-out 4 days after seeding. Number of doublings in 4 days was determined by calculating the loge fold-change in signal between day 0 and 4. For cell counting experiments, 100,000 cells/ml were seeded in a 6-well plate in triplicates and counted immediately after seeding and from then on every 24 hours for 5 sequential days.
compound,measurement,value
O=CO [formate],rescue of the proliferation defect of MCART1-null cells by addition of metabolites to the media,not rescued
